Test results published in US7514555B2, “Compounds for the treatment of metabolic disorders” (Wellstat Therapeutics Corporation, priority 2003, dated 2009).
Entries after “also recorded” stand apart in the source; their conditions may differ.

Columns and labels:
db/db mice [1] = assay: Antidiabetic effects in db/db mice, daily oral dosing for 2 weeks; type: in vivo; settings: for Glucose / Glucose (% of Control) / Free Fatty Acids ± SEM / Glucose ± SEM / Triglycerides ± SEM: 100 mg/kg daily oral; for Glucose / Glucose (% of Control): 2 weeks; for Glucose (% of Control): relative to vehicle control; for effect on blood glucose (in words) / effect on free fatty acids (in words) / effect on triglycerides (in words): 2 weeks of daily oral dosing; for Free Fatty Acids ± SEM / Glucose ± SEM / Triglycerides ± SEM: plasma serum, 2 weeks (Table IV)
Excerpt: (§1) Db/db mice have a defect in leptin signaling, leading to hyperphagia, obesity and diabetes. Moreover, unlike ob/ob mice on a C57BL/6J background, db/db mice on a C57BLKS background undergo failure of their insulin-producing pancreatic islet cells, resulting in progression from hyperinsulinemia (associated with peripheral insulin resistance) to hypoinsulinemic diabetes.
(§2) Male obese (db/db homozygote) C57BL/Ksola mice approximately 8 weeks of age, were obtained from Jackson Labs (Bar Harbor, Me.) and randomly assigned into groups of 5-7 animals such that the body weights (40-45 g) and serum glucose levels (≧300 mg/dl in fed state) were similar between groups; male lean (db/+heterozygote) mice served as cohort controls. A minimum of 7 days was allowed for adaptation after arrival. All animals were maintained under controlled temperature (23° C.), relative humidity (50±5%) and light (7:00-19:00), and allowed free access to standard chow (Formulab Diet 5008, Quality Lab Products, Elkridge, Md.) and water.
[…] At the end of the treatment period 100 μl of venous blood was withdrawn in a heparinized capillary tube from the retro-orbital sinus for serum chemistry analysis.
The same procedure as Example 2 was followed.

db/db mice [2] = assay: Antidiabetic effects in db/db mice, daily oral dosing for 4 weeks; type: in vivo; settings: for effect on blood glucose (in words) / effect on free fatty acids (in words) / effect on serum triglycerides (in words): 4 weeks of daily oral dosing; for effect on blood glucose (in words): versus vehicle; for effect on free fatty acids (in words) / effect on serum triglycerides (in words): versus vehicle-treated db/db mice; for Glucose ± SEM: serum glucose; for Glucose ± SEM / Free Fatty Acids ± SEM / Triglycerides ± SEM: 100 mg/kg daily oral, 4 weeks; for Free Fatty Acids ± SEM / Triglycerides ± SEM: serum
Excerpt: as §1, §2
Treatment cohorts were given daily oral doses of vehicle, Compound BI (100 mg/kg), or Compound CR (100 mg/kg) for 4 weeks. At the end of the treatment period 100 μl of venous blood was withdrawn in a heparinized capillary tube from the retro-orbital sinus for serum chemistry analysis.

| Compound | Glucose (db/db mice [1]) [mg/dL] | Glucose (% of Control) (db/db mice [1]) | effect on blood glucose (in words) (db/db mice [1]) | effect on free fatty acids (in words) (db/db mice [1]) | effect on triglycerides (in words) (db/db mice [1]) | Free Fatty Acids ± SEM (db/db mice [1]) | Glucose ± SEM (db/db mice [1]) | Triglycerides ± SEM (db/db mice [1]) | effect on blood glucose (in words) (db/db mice [2]) | effect on free fatty acids (in words) (db/db mice [2]) | effect on serum triglycerides (in words) (db/db mice [2]) | Glucose ± SEM (db/db mice [2]) [mg/dL] | Free Fatty Acids ± SEM (db/db mice [2]) [µM] | Triglycerides ± SEM (db/db mice [2]) [mg/dL] |
| --- | --- | --- | --- | --- | --- | --- | --- | --- | --- | --- | --- | --- | --- | --- |
| Cc1cccc(C)c1COc1cccc(C(=O)CCC(=O)O)c1 [Compound BI, 4-(3-(2,6-Dimethylbenzyloxy)-phenyl)-4-oxobutanoic acid, reference compound] | 317.4 ± 48.0 | 42 ± 6 % of Control | significant reduction | caused a decrease | markedly reduce | 1070.3 ± 96.4 | 317.4 ± 48.0 | 136.3 ± 18.1 | significant reduction | reduced | reduced | 189 ± 25 | 1387 ± 101 | 125 ± 11 |
| Cc1cccc(C)c1COc1cccc([C@H](O)CCC(=O)O)c1 [Compound CR, 4-(3-(2,6-Dimethylbenzyloxy)-phenyl)-4(R)-hydroxybutanoic acid] | 263.2 ± 59.0 | 35 ± 8 % of Control | significant reduction | not CR caused a decrease | markedly reduce | 1326.3 ± 124.2 | 263.2 ± 59.0 | 86.3 ± 9.4 | significant reduction | reduced; also recorded: did result in a decrease | reduced | 235 ± 49 | 1634 ± 78 | 182 ± 29 |
